Several values for one entry are separate records, joined by “and”; a condition that tells them apart may be missing. Equal entries are not always repeated.
Tests used:
[1] = Permeability and efflux analysis in Caco-2 cells; conditions: human
STAT3-SH2 domain = STAT3-SH2 domain (Mus musculus, UniProt P42227); experiment: STAT3 fluorescence polarization; format: binding, murine; conditions: non-phosphorylated analogs; data not shown
[2] = tested on: STAT3–STAT3:DNA binding activity in NIH3T3/vSrc; format: cell-based, mouse; conditions: 100 μM; for suppression of STAT3-DNA binding activity (in words): 6 and 24 hrs
gp130 (Homo sapiens) = gp130 (Homo sapiens) (UniProt P40189); experiment: SPR; conditions: cited from earlier work
Chain of gp130 (Homo sapiens) (P40189 whole entry, looked up): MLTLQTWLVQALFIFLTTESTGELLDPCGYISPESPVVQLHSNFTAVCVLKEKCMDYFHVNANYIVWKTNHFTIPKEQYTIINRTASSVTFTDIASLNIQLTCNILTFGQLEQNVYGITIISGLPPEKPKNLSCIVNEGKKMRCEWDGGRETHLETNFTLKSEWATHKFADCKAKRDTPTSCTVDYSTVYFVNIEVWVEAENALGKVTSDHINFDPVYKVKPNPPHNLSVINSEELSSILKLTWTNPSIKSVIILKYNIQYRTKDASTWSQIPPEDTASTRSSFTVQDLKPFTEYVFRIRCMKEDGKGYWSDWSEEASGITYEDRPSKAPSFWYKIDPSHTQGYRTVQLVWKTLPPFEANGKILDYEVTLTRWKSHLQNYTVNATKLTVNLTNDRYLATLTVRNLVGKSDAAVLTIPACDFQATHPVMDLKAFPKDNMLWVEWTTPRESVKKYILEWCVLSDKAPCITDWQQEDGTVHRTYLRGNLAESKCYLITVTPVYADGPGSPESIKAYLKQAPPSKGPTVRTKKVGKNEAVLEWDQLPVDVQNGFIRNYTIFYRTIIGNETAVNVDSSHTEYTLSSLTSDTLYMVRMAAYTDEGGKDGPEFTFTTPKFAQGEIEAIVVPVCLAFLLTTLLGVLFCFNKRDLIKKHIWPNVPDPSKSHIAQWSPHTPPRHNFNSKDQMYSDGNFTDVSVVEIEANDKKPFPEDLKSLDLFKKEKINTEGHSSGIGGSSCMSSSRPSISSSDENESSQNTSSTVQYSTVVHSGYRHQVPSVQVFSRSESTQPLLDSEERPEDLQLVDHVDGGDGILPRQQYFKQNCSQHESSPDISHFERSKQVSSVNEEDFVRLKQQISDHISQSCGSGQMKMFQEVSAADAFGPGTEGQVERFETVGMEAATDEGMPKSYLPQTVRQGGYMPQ

tumor cells = conditions: cited from earlier work
in vitro = conditions: human; for recovery at 90 min, 10 μM: Caco-2
[3] = tested on: DU145, Panc-1, NIH3T3/vSrc and MDA468 cells; format: cell-based; conditions: 24 hrs, lower concentrations; data not shown
STAT5 = STAT5 fluorescence polarization; format: binding; conditions: data not shown

Chain of STAT3-SH2 domain (P42227 whole entry, the tested form may be a part): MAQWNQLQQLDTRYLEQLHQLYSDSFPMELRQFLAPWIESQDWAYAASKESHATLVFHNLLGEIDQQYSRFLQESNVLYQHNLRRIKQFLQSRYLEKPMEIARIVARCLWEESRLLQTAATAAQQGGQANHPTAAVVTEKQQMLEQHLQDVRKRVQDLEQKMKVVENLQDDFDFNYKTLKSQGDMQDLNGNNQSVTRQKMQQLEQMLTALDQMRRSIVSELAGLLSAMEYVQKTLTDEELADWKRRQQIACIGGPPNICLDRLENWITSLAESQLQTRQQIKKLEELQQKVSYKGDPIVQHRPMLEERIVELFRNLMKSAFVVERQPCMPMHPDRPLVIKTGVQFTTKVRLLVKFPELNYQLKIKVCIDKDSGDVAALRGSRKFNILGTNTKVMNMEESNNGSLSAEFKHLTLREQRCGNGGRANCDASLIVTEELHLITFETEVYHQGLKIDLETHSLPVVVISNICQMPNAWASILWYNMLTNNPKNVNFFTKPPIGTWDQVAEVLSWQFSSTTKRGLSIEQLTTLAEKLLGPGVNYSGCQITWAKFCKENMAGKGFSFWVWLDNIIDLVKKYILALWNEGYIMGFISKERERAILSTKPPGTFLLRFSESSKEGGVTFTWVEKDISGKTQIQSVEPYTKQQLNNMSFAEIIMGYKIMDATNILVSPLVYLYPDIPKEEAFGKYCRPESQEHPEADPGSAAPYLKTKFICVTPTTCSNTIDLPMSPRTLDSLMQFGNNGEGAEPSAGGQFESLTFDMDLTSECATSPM
Chain of STAT3 (P40763 2-770): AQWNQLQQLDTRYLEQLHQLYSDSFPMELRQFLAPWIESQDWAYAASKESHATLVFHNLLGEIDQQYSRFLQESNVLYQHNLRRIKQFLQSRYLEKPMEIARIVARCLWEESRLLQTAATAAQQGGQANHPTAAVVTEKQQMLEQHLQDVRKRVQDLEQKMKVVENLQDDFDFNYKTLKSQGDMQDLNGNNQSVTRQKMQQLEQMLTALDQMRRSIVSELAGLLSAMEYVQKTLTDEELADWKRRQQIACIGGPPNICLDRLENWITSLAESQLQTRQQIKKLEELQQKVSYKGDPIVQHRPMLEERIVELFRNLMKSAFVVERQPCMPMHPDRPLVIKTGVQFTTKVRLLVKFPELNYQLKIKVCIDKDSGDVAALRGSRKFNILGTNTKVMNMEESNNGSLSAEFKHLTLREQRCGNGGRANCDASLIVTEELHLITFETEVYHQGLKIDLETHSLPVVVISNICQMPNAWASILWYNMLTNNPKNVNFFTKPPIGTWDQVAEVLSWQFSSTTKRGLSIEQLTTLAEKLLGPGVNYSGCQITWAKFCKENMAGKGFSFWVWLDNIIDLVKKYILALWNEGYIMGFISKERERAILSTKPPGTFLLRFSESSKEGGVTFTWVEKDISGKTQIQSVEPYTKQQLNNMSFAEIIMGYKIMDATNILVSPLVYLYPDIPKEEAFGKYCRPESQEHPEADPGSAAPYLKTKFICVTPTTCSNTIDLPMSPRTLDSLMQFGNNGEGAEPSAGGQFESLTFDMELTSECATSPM

Row | Compound | Papp at 90 min, 10 μM [1] | inhibition of the STAT3–phosphopeptide complex (FP) (STAT3-SH2 domain) | suppression of STAT3-DNA binding activity (in words) [2] | recovery at 90 min, 10 μM (in vitro) | effect on STAT5 in FP assay (STAT5) | STAT3 activity after 24 h [2] | other results
1 | CC(C)C[C@H](NC(=O)[C@H](Cc1ccc(O)cc1)NC(=O)c1ccc(C#N)cc1)C(=O)Nc1ccc(C(=O)NCc2ccccc2)c(-c2ccc(C(N)=O)cc2)c1 [Inhibitor 14aa-OH] | < 2 ×10⁻⁶ cm/s | neither peptidomimetic inhibited | almost the same potency as 14aa |  |  |  | 
2 | CC(C)C[C@H](NC(=O)[C@H](Cc1ccc(O)cc1)NC(=O)c1ccc(C#N)cc1)C(=O)Nc1cc(C(=O)NCc2ccccc2)cc(-c2ccc(C(N)=O)cc2)c1 [Inhibitor 14ba-OH, N^3-benzyl-5-((S)-2-((S)-2-(4-cyanobenzamido)-3-(4-hydroxyphenyl)propanamido)-4-methylpentanamido)-[1,1′-biphenyl]-3,4′-dicarboxamide] | < 2 ×10⁻⁶ cm/s | neither peptidomimetic inhibited | negligible disruption |  |  |  | 
3 | STAT3 (from UniProt P40763) |  |  |  |  |  |  | Kd (gp130 (Homo sapiens)): 24 nM
4 | CC(C)C[C@H](NC(=O)[C@H](Cc1ccc(OP(=O)(O)O)cc1)NC(=O)c1ccc(C#N)cc1)C(=O)O [ISS610] |  |  |  |  |  |  | dosage required for cellular activities (tumor cells): mM dosages
5 | CC(C)C[C@H](NC(=O)[C@H](Cc1ccc(OP(=O)(O)O)cc1)NC(=O)c1ccc(C#N)cc1)C(=O)Nc1cc(C(=O)NCc2ccccc2)cc(-c2ccc(C(N)=O)cc2)c1 [Inhibitor 14ba, 4-((S)-3-(((S)-1-((5-(benzylcarbamoyl)-4′-carbamoyl-[1,1′-biphenyl]-3-yl)amino)-4-methyl-1-oxopentan-2-yl)amino)-2-(4-cyanobenzamido)-3-oxopropyl)phenyl dihydrogen phosphate] |  |  |  | 1 to 2% | no effect | partially recovered | Papp A→B at 90 min, 10 μM (in vitro; Caco-2, pH 7.4): < 0.5 ×10⁻⁶ cm/s; anti-cancer activity (cell viability, in words) [3]: only limited anti-cancer activity
6 | CC(C)C[C@H](NC(=O)[C@H](Cc1ccc(OP(=O)(O)O)cc1)NC(=O)c1ccc(C#N)cc1)C(=O)Nc1ccc(C(=O)NCc2ccccc2)c(-c2ccc(C(N)=O)cc2)c1 [Inhibitor 14aa, 4-((S)-3-((S)-1-(6-(benzylcarbamoyl)-4′-carbamoylbiphenyl-3-ylamino)-4-methyl-1-oxopentan-2-ylamino)-2-(4-cyanobenzamido)-3-oxopropyl)phenyl dihydrogen phosphate] |  |  |  | 1 to 2% | no effect | partially recovered | suppression of STAT3-DNA binding activity ([2]; after 6 h): 80% and > 80%

Reference: article PMC3151534 (Bioorganic & medicinal chemistry, 2010)
